Values of other authors, collected in patent US9446139B2, “Polymer-based compositions and conjugates of HIV entry inhibitors” (Nektar Therapeutics, priority 2004, dated 2016).

Assays:
[1] = 90-mg single subcutaneous dose (N=12)

Q: With enfuvirtide as the substance, how does the “mean duration of each ISR” value (human, in vivo) read?
A: The value was “around 7 days”.

Q: What about the “patients reporting at least one instance of painful or troublesome local injection site reactions (ISR)” value (subcutaneous injection two times a day) of the same substance?
A: Its value is 98%.

Q: And the “mean elimination half life” value [1]?
A: Its value is 3.8 ± 0.6 h.

Q: And the “mean±SD apparent clearance” value [1]?
A: The value was 24.8 ± 4.1 mL/h/kg.
